SMILES strings stand for the structures.

This data set deals with rats. The data set can be described thus: nephrotoxicity model: eicosanoids in plasma of rats receiving puromycin, LC-MS/MS. It counts as in vivo. As to conditions: 4 groups receiving different dosages of puromycin, FIG. 4. As to the method:
To determine free fatty acid metabolites in various biological materials, a small amount of sample (20 μL) was applied onto a filter spot containing stable isotopes for the various metabolites in a microtiter plate and extracted in aqueous methanol without further derivatization as described in FIG. 1. Separation of metabolites was done on a RP-HPLC (Zorbax Eclipse C18, 3.0×100 mm, 3.5 μm) column after injection of 20 μL extract using an Agilent 1100 system (Agilent Technologies) with an HTC PAL autosampler (CTC Analytics). Mobile phase compositions were A: H2O with 0.05% (v/v) formic acid and B: acetonitrile with 0.05% (v/v) formic acid. Flow rate was constant at 500 μL/min, metabolites were separated by gradient elution. Detection was done by MRM transitions in negative detection mode using an API4000Qtrap® equipped with an ESI source (Applied Biosystems). Quantification of metabolites was performed with Analyst v.1.4.2 quantitation.
Test cases of disease states show an increase of free fatty acids, prostaglandins and hydroxylated species in conjunction with pulmonary inflammations, prostate cancer and cardiovascular disease. […]
Plasma samples obtained from 4 groups of rats receiving different dosages of puromycin were analyzed.
FIGS. 4a, 4b, 4c and 4d. […] The concentrations of 4 different eicosanoids (as indicated) in rat plasma samples have been determined and normalized.

As for `COc1ccc(C[C@H](N)C(=O)N[C@H]2[C@@H](O)[C@H](n3cnc4c(N(C)C)ncnc43)O[C@@H]2CO)cc1` [puromycin], the “cyclooxygenase and lipoxygenase activity (concentrations of 4 different eicosanoids in rat plasma, normalized)” value was “Increased cyclooxygenase and lipoxygenase activity”.

Source of the values: patent publication US20100233746A1, “Inflammation and Oxidative Stress Level Assay” (priority 2007, published 2010).
